Reference: patent US20220089592A1, “IMIDAZO[1,2-A]PYRIDINYL DERIVATIVES AS IRAK4 INHIBITORS” (priority 2019, published 2022)

Molecular target: T1, IRAK4 (Homo sapiens, UniProt Q9NWZ3)
T1 sequence (Q9NWZ3 1-460): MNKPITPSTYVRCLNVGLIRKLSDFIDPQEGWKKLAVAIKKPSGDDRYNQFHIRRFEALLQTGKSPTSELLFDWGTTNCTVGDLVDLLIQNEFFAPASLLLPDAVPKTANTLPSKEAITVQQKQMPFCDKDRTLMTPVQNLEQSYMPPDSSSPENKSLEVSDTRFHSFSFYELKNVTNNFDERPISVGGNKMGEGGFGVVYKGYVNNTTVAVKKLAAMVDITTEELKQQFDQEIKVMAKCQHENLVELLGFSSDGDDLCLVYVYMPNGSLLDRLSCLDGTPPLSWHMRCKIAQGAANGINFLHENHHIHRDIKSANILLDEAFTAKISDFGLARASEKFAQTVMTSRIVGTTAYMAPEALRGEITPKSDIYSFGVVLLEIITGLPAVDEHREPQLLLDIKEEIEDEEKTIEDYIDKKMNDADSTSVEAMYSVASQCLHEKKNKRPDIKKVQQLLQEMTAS
Experiment: 2-hour 1 mM ATP IRAK4 Biochemical assay (as above, but with 100 pM IRAK4 and 1 mM ATP)
Settings: IRAK4 MSD BIOCHEMICAL (1 mM ATP) IC50 (μM), 100 pM IRAK4, 2 hours
Method in brief: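 MSD electrochemiluminescence read-out: biotinylated peptide product bound to streptavidin plates, probed with anti-P-Thr rabbit antibody and Sulfo-Tag goat anti-rabbit. Kinase reaction used 1 mM ATP and 100 pM IRAK4 over 2 hours before EDTA quench.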

IC50 | SMILES
0.051 µM | COc1nc(NC(=O)c2cccc(C)c2F)cn2cc(C34CCC(C)(C3)OC4)nc12 (stereo not drawn) [Example 467, 2-fluoro-N-(8-methoxy-2-(1-methyl-2-oxabicyclo[2.2.1]heptan-4-yl)imidazo[1,2-a]pyrazin-6-yl)-3-methylbenzamide 2,2,2-trifluoroacetate]
0.025 µM | CC(C)Oc1nc(NC(=O)c2ccnc3ccnn23)cn2cc(C34COC(C)(C3)C4)nc12 [Example 481, N-(8-isopropoxy-2-(1-methyl-2-oxabicyclo[2.1.1]hexan-4-yl)imidazo[1,2-a]pyrazin-6-yl)pyrazolo[1,5-a]pyrimidine-7-carboxamide]
0.05 µM | COc1cc(NC(=O)c2cccc(C(F)F)n2)cn2cc(C34CC(F)(C3)C4)nc12 [Example 535, 6-(difluoromethyl)-N-(2-(3-fluorobicyclo[1.1.1]pentan-1-yl)-8-methoxyimidazo[1,2-a]pyridin-6-yl)picolinamide]
0.002 µM | CC(C)Oc1nc2nc(C3C4COCC43)cn2cc1NC(=O)c1coc(C(C)C)n1 (stereo not drawn) [Example 504, N-(2-(3-oxabicyclo[3.1.0]hexan-6-yl)-7-isopropoxyimidazo[1,2-a]pyrimidin-6-yl)-2-isopropyloxazole-4-carboxamide]
0.004 µM | COc1cc(NC(=O)c2cccc(C(F)F)n2)cn2cc(C3CCCOC3)nc12 (single isomer, unassigned) [Example 269, 6-(difluoromethyl)-N-(8-methoxy-2-(tetrahydro-2H-pyran-3-yl)imidazo[1,2-a]pyridin-6-yl)picolinamide]

Continued, compound first:

SMILES | IC50
CC(C)Oc1c(NC(=O)c2ccn(C)n2)cn2cc(C34CCC(C)(C3)OC4)nc2c1F (stereo not drawn) [Example 325, N-(8-fluoro-7-isopropoxy-2-(1-methyl-2-oxabicyclo[2.2.1]heptan-4-yl)imidazo[1,2-a]pyridin-6-yl)-1-methyl-1H-pyrazole-3-carboxamide] | 0.002 µM
CC(C)Oc1nc2nc(C34COC(C)(C3)C4)cn2cc1NC(=O)c1ccn(C)n1 [Example 497, N-(7-isopropoxy-2-(1-methyl-2-oxabicyclo[2.1.1]hexan-4-yl)imidazo[1,2-a]pyrimidin-6-yl)-1-methyl-1H-pyrazole-3-carboxamide] | 0.006 µM
CC(C)Oc1nc(NC(=O)c2cccc3ccnn23)cn2cc(C34COC(C)(C3)C4)nc12 [Example 336, N-(8-Isopropoxy-2-(1-methyl-2-oxabicyclo[2.1.1]hexan-4-yl)imidazo[1,2-a]pyrazin-6-yl)pyrazolo[1,5-a]pyridine-7-carboxamide] | 0.003 µM
CC12CC(c3cn4cc(NC(=O)c5cccc(C(F)F)n5)cc(OC(F)F)c4n3)(CO1)C2 [Example 419, N-(8-(difluoromethoxy)-2-(1-methyl-2-oxabicyclo[2.1.1]hexan-4-yl)imidazo[1,2-a]pyridin-6-yl)-6-(difluoromethyl)picolinamide] | 0.011 µM
COc1nc2nc(C3CCCOC3)cn2cc1NC(=O)c1cccc(C(F)F)n1 (stereo not drawn) [Example 569, 6-(difluoromethyl)-N-(7-methoxy-2-(tetrahydro-2H-pyran-3-yl)imidazo[1,2-a]pyrimidin-6-yl)picolinamide] | 0.004 µM
CC(C)Oc1c(NC(=O)c2cccc(OCC(F)F)n2)cn2cc(C34COC(C)(C3)C4)nc2c1F [Example 429, 6-(2,2-difluoroethoxy)-N-(8-fluoro-7-isopropoxy-2-(1-methyl-2-oxabicyclo[2.1.1]hexan-4-yl)imidazo[1,2-a]pyridin-6-yl)picolinamide 2,2,2-trifluoroacetate] | 0.006 µM
CCCOc1nc(NC(=O)c2cccc(C(F)F)n2)cn2cc(C3CCOCC3)nc12 [Example 476, 6-(difluoromethyl)-N-(8-propoxy-2-(tetrahydro-2H-pyran-4-yl)imidazo[1,2-a]pyrazin-6-yl)picolinamide 2,2,2-trifluoroacetate] | 0.006 µM
